One data set is described as follows: physchem. As to conditions: FaSSIF.
Data set [1] can be described thus: Kinetic solubility of the compound. The data set is classed as physicochemical. As to conditions: read-out: Kinetic_solubility.
A short description of data set [2]: Intrinsic clearance in mouse microsomes. Type of data set: ADME, Microsome.
Data set [3] can be described thus: Intrinsic clearance in human microsomes. The data set is classed as ADME, Microsome.
Data set [4] in a line: Oral bioavailability in rat at 10 mg/kg. The note with it: in vivo. Type of data set: ADME, organism-based.
A short description of data set [5]: Stability of the compound in human plasma assessed as parent compound remaining after 4 hrs. The data set is classed as ADME, cell-free. As to conditions: read-out: Stabilty.
The nature of data set [6]: Cmax in rat at 10 mg/kg, po. The data set is classed as ADME, organism-based. The arrangement: route oral, dose 10 mg/kg. As to conditions: in vivo.
Data set [7] can be described thus: AUC(0 to 6 hrs) in rat at 10 mg/kg, po. Type of data set: ADME, organism-based. The arrangement: time < 6 hr, route oral, dose 10 mg/kg. As to conditions: in vivo.
Data set [8] can be described thus: Half life in rat at 10 mg/kg, po. Type of data set: ADME, organism-based. As to conditions: in vivo.
Data set [9] is described as follows: Intrinsic clearance in rat microsomes. The data set is classed as ADME, Microsome.
Data set [10] is described as follows: AUC(0 to 4 hrs) in rat at 0.2 mg/kg, iv. Type of data set: ADME, organism-based. More on the design: time < 4 hr, route intravenous, dose 0.2 mg/kg. The note with it: in vivo.
The nature of data set [11]: Volume of distribution at steady state in rat at 0.2 mg/kg, iv. Type of data set: ADME, organism-based. As to conditions: in vivo, read-out: Vdss.
Data set [12] in a line: Stability of the compound in mouse plasma assessed as parent compound remaining after 4 hrs. Type of data set: ADME, cell-free. As to conditions: read-out: Stabilty.
Data set [13] can be described thus: Clearance in rat at 0.2 mg/kg, iv. The note with it: in vivo. Type of data set: ADME, organism-based.

Structures are written as SMILES. In brackets after ≈: the same amount, converted by molar mass.

The solubility is the dissolved amount per volume that the medium holds. Low readings indicate a poorly soluble substance, high ones a readily soluble substance. For `CN1CCN(c2ccc(Nc3cc(-c4cccc(-n5ccc6cc(C7CC7)cc(F)c6c5=O)c4CO)cn(C)c3=O)nc2)CC1`, the solubility in “physchem” was determined as 31 µg/mL (≈ 51.1 µM).
In the case of `Cn1cc(-c2nc3c(-c4ccc(CNC(=O)c5nc(C(C)(C)C)no5)c(F)c4)ccnc3[nH]2)cn1`, the solubility kinetic in data set [1] is 1.7 µM (≈ 0.807 µg/mL). This compound also yielded a solubility in the data set “physchem” of 2 µg/mL (≈ 4.21 µM).
For the compound `Cn1cc(-c2nc3c(-c4ccc(C5(NC(=O)c6nc(C(C)(C)C)no6)CC5)cc4)ccnc3[nH]2)cn1`, the concentration in solution in “physchem” (solubility) was 56 µg/mL (≈ 116 µM).
As to `Cc1c(-c2nc3c(-c4ccc5c(c4)CCC[C@@H]5NC(=O)c4nc(C(C)(C)C)no4)ccnc3[nH]2)cnn1C(C)C`, in the data set “physchem”, the solubility came out at 28 µg/mL (≈ 52 µM).
On to `Cc1nn(C(C)C)c(C)c1-c1nc2c(-c3ccc4c(c3)CCC[C@H]4NC(=O)c3nc(C(C)(C)C)no3)ccnc2[nH]1`, for which, in the data set “physchem”, the solubility worked out at 56 µg/mL (≈ 101 µM).
Regarding `CC(C)n1cc(-c2nc3c(-c4ccc5c(c4)CCC[C@@H]5NC(=O)c4nc(C(C)(C)C)no4)ccnc3[nH]2)cn1`, the concentration in solution in “physchem” (solubility) was 25 µg/mL (≈ 47.7 µM). This solubility is about 2.2-fold lower than that of the compound before.
The same measure, in the same setting: then `Cn1cc(-c2nc3c(-c4ccc5c(c4)CCC[C@@H]5NC(=O)c4nc(C(C)(C)C)no4)ccnc3[nH]2)cn1`, with 190 µg/mL (≈ 383 µM); and `Cc1nn(C2CCOCC2)cc1-c1nc2c(-c3ccc4c(c3)CCC[C@@H]4NC(=O)c3nc(C(C)(C)C)no3)ccnc2[nH]1`, with 33 µg/mL (≈ 56.8 µM).
Consider `Cc1c(-c2nc3c(-c4ccc5c(c4)CCC[C@H]5NC(=O)c4nc(C(C)(C)C)no4)ccnc3[nH]2)cnn1C1CCOCC1`, for which, in “physchem”, the solubility came out at 7 µg/mL (≈ 12.1 µM).
As a reminder, the microsomal CLint is the capacity of the preparation to metabolise the compound, expressed as a volume cleared per time. The low end stands for slow turnover, the high end for rapid turnover. For orientation: bioavailability means dose-corrected exposure relative to a reference, in per cent. A lower bioavailability goes with poor availability. One may read the Cmax as the highest concentration seen after dosing. For orientation: AUC means the area under the concentration-time curve, a measure of exposure. Read a high AUC as more exposure. A word on the half-life: it is the time needed for the level to fall by half in the phase considered. Read a low half-life as fast loss. As for `Cc1nn(C(C)C)c(C)c1-c1nc2nccc(-c3ccc4c(c3)CCCC[C@H]4NC(=O)c3nc(C(C)(C)C)no3)c2[nH]1`, the intrinsic clearance (microsomal CLint) in data set [2] was determined as 75 µL/min/mg; in data set [3] it was 32 µL/min/mg; in [9] it was 67 µL/min/mg. The same compound displayed a bioavailability in [4] of 77%. Moreover, the remaining at 4 h in data set [5] and in [12] was above 85% each time. In data set [6], this compound had a Cmax of 849 ng/mL. Moreover, the AUC in data set [7] was determined as 3030 ng·h/mL; in [10] it was 79 ng·h/mL. Moreover, in [8], the half-life is 116 min. Besides, the Vd in data set [11] was 2.62 L/kg. Also, the CL in data set [13] stood at 2.42 L/kg/h.

These data come from ChEMBL document CHEMBL4819115, “Discovery of potent and selective reversible Bruton's tyrosine kinase inhibitors” (Bioorg Med Chem, 2021).
